Reference: ChEMBL document CHEMBL1201862, “PubChem BioAssay data set” (2004)
Activity calls are given as the source filed them.

Columns and labels:
Mu-type opioid receptor = Mu-type opioid receptor (Homo sapiens, UniProt P35372); format: functional, cell-based;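 further: U2OS cells with beta-arrestin recruitment to OPRM1 by beta-gal complementation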
[1] = target: 5-hydroxytryptamine receptor 2A (Mus musculus, UniProt P35363); format: functional, cell-based;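 further: CHO-K1 cells with tagged receptor and beta-arrestin; agonist potency measured as compound-induced activation of the receptor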
Vero = assay: cells; format: functional; conditions: Chlorocebus sabaeus
[2] = tested on: Streptococcus sp. 'group A'; assay: Streptococcus pyogenes SK(-)GAS viability under kanamycin – luminescence, BacTiterGlo, confirmation, counter-screen for streptokinase expression inhibitor project, dose response (AID 1900); format: functional, organism-based
Streptococcus = assay: GAS UMAA2166 growth inhibition – luminescence, BacTiterGlo, counter-screen for streptokinase expression inhibitor project, dose response (AID 1915); format: functional, organism-based;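 further: potency for reduction of bacterial viability or growth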
Albumin = Albumin (Bos taurus, UniProt P02769); assay: Counterscreen for inhibitors of T-cell receptor (TCR)-CD3 interaction: Fluorescence-based biochemical high throughput dose response assay to identify inhibitors of T-cell receptor (TCR)-CD3 interaction using a TAMRA-labeled BSA probe.; format: functional
[3] = target: T1, Corticotropin-releasing factor receptor 2/Corticotropin-releasing factor-binding protein (Homo sapiens, UniProt P24387+Q13324); assay: activators of CRF receptor 2 with binding protein – uHTS hits, confirmation (AID 602473); format: functional; conditions: read-out: EC50_Mean
T1 sequence (Q13324 whole entry): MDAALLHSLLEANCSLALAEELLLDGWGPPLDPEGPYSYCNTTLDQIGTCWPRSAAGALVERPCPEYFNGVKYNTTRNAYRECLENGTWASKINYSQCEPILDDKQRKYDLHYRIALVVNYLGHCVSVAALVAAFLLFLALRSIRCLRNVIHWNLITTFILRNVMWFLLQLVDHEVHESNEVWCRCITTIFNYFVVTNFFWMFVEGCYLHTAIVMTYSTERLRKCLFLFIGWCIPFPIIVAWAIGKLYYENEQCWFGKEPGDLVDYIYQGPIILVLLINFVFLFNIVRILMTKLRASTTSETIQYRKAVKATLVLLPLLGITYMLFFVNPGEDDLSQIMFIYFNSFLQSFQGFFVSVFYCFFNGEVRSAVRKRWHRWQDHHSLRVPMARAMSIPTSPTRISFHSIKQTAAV
T1 sequence (P24387 whole entry): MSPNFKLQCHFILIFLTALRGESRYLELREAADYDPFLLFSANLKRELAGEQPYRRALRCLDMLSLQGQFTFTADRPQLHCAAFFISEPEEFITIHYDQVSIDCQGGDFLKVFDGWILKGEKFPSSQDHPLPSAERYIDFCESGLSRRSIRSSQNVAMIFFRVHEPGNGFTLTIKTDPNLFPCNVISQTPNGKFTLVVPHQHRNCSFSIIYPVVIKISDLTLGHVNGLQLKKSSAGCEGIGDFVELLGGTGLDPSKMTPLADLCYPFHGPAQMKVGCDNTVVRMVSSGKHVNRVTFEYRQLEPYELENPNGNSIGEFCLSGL

cells = format: functional
Protein skinhead-1 = target: T2, Protein skinhead-1 (Caenorhabditis elegans, UniProt P34707); format: functional
T2 sequence (P34707 whole entry): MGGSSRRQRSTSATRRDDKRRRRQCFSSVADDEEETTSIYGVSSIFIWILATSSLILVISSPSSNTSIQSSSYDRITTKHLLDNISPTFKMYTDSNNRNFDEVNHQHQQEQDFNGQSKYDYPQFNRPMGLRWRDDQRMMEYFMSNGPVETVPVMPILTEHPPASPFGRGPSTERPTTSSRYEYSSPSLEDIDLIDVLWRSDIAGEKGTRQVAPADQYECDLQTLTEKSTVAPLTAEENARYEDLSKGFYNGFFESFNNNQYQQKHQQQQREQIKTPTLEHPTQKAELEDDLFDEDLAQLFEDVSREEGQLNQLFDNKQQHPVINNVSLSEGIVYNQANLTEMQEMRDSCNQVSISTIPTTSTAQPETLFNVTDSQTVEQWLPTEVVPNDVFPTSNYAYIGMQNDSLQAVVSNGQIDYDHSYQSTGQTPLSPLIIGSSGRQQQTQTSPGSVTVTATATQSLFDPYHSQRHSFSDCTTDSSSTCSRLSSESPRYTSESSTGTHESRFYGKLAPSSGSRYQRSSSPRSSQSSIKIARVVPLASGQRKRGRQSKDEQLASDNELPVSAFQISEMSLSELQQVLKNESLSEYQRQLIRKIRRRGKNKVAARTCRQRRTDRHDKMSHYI

[4] = blockers of CRF-binding protein–CRF-R2 complex – cell-based, uHTS hits, 384-well, dose response (AID 651639); format: functional, Homo sapiens; conditions: read-out: IC50_Mean
[5] = target: T1, Corticotropin-releasing factor receptor 2/Corticotropin-releasing factor-binding protein; assay: Dose Response confirmation of uHTS hits for small molecule antagonists of the CRF-binding protein and CRF-R2 receptor complex.; format: functional; conditions: read-out: IC50_Mean
[6] = blockers of HIV-1 ZM109 envelope-driven cell-cell fusion – HeLa effector, CEM target cells, luciferase, cherry-pick, dose response (AID 652058); format: functional, cell-based;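 further: luciferase signal from HIV-1 Env mediated cell-cell fusion of effector and target cells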
[7] = blockers of HIV-1 envelope-mediated cell-cell fusion – cherry-pick, dose response (AID 652057); format: functional, cell-based
[8] = HIV-1 AD8 envelope cell-cell fusion blockers – cherry-pick, dose response (AID 652062); format: functional, cell-based;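 further: luciferase signal from cell-cell fusion driven by HIV-1 clade B AD8 Env; potency is for inhibitors of fusion seen as a drop in luminescence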
[9] = off-target signal loss in HeLa-CEM21 co-culture – HeLa F-luc CTL cells, cherry-picked, counter-screen for HIV-1 Env fusion inhibitor project, dose response (AID 652040); format: functional, cell-based;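 further: potency for signal decrease marking cytotoxic or nonspecific inhibition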
[10] = viability loss in CEM21 cells – cell-based, CellTiter-Glo luminescence, cherry-picked, cytotoxicity control for viral fusion inhibitor project, dose response (AID 652042); format: functional;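 further: potency for signal decrease meaning cytotoxicity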
Fatty acid synthase [11] = target: T3, Fatty acid synthase (Homo sapiens, UniProt P49327); assay: inhibition of human FAS-TE enzyme activity – biochemical, endpoint fluorescence intensity, uHTS hits, dose response (AID 624327); format: functional;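 further: fluorescence from hydrolysis of an O-methyl fluorescein acyl ester substrate by the enzyme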
[12] = target: T4, Carboxy-terminal domain RNA polymerase II polypeptide A small phosphatase 1 (Homo sapiens, UniProt Q9GZU7); assay: CTDSP1 inhibitors, concentration-response, biochemical, absorbance readout, ultra-high-throughput screen actives (AID 540297); format: functional
T4 sequence (Q9GZU7 whole entry): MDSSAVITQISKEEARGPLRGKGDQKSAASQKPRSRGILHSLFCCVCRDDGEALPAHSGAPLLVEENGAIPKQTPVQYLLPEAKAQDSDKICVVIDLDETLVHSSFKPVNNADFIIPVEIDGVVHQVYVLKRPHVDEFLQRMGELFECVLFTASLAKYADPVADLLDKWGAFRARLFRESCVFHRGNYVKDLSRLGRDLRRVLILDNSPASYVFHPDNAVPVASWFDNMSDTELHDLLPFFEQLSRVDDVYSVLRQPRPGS

Fatty acid synthase [13] = target: T3, Fatty acid synthase; assay: inhibition of human FAS-TE enzyme activity – biochemical, kinetic fluorescence intensity, dose response (AID 624326); format: functional;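 further: rate of fluorescence rise from hydrolysis of a fluorogenic O-methyl fluorescein ester substrate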
[14] = target: T5, Sentrin-specific protease 8 (Homo sapiens, UniProt Q96LD8); format: functional
T5 sequence (Q96LD8 whole entry): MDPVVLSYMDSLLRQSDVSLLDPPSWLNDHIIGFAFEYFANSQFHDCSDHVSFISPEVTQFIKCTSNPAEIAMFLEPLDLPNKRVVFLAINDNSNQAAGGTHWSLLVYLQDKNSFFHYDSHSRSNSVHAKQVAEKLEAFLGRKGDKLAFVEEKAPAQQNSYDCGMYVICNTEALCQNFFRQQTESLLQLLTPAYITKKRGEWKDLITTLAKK

[15] = target: T5, Sentrin-specific protease 8; format: functional; remark: listed apart in the source
[16] = target: T6, RNA-binding protein pos-1 (Caenorhabditis elegans, UniProt G5EF15); assay: disruptors of C. elegans POS-1 RNA interaction – biochemical, fluorescence polarization, dose response (AID 1964);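 further: purified POS-1 fused to maltose binding protein made in E. coli; potency of compounds blocking POS-1 binding to fluorescent RNA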
T6 sequence (G5EF15 whole entry): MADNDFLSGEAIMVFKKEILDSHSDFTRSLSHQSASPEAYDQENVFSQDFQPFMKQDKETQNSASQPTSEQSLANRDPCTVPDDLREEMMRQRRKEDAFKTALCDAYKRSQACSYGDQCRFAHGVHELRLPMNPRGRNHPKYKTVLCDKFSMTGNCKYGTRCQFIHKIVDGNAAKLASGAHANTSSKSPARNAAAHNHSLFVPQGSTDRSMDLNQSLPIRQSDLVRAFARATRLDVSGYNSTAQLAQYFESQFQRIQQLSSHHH

Aminopeptidase N = target: T7, Aminopeptidase N (Plasmodium falciparum FcB1/Columbia, UniProt O96935); assay: malaria alanyl aminopeptidase activity blockers – biochemical, fluorogenic H-Leu-NHMec substrate, 1536-well (AID 1445); parameters: species or system Plasmodium falciparum 3D7, 3D7
T7 sequence (O96935 whole entry): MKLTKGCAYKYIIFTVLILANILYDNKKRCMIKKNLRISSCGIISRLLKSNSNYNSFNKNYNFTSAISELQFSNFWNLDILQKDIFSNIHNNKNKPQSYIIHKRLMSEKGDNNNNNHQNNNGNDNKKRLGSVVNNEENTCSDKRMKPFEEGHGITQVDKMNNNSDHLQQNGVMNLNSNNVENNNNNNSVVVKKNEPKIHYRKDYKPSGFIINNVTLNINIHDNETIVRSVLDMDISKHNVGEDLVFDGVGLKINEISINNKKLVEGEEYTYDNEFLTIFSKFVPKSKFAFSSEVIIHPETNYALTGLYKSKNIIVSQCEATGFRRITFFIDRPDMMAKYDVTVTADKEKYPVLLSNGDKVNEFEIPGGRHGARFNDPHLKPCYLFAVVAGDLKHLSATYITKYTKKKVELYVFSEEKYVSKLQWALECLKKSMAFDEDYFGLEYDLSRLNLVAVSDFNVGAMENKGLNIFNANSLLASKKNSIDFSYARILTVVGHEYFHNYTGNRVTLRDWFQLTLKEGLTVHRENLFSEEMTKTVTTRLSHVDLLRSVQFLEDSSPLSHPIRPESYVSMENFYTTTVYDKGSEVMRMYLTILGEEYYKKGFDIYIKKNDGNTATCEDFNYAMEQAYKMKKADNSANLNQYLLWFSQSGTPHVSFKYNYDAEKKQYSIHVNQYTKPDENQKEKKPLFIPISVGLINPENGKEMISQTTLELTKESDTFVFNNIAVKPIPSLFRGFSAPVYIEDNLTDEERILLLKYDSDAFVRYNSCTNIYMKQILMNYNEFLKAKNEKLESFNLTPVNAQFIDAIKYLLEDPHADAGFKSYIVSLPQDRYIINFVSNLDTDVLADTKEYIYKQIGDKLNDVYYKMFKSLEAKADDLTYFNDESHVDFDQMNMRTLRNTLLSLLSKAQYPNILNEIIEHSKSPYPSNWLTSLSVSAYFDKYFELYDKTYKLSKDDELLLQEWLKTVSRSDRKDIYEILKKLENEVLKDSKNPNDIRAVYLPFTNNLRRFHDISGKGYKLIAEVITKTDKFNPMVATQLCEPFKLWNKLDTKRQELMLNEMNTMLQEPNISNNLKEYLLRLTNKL

[17] = target: T8, Zinc finger protein mex-5 (Caenorhabditis elegans, UniProt Q9XUB2); assay: potency of MEX-5 RNA-binding blockers – biochemical, C. elegans, fluorescence polarization, dose response (AID 1960)
T8 sequence (Q9XUB2 whole entry): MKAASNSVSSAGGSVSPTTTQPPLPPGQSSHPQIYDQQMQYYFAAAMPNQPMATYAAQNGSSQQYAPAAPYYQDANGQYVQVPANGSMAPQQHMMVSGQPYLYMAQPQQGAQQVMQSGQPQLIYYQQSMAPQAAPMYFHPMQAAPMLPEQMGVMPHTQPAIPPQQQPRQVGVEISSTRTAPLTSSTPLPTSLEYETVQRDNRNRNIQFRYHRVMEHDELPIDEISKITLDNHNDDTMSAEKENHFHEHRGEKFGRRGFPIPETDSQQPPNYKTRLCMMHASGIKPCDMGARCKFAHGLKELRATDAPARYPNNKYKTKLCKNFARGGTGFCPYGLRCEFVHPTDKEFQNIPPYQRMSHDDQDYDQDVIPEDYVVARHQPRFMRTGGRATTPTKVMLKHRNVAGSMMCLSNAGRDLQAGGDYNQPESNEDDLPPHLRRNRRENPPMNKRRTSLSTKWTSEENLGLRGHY

Sequence of Mu-type opioid receptor (P35372 whole entry): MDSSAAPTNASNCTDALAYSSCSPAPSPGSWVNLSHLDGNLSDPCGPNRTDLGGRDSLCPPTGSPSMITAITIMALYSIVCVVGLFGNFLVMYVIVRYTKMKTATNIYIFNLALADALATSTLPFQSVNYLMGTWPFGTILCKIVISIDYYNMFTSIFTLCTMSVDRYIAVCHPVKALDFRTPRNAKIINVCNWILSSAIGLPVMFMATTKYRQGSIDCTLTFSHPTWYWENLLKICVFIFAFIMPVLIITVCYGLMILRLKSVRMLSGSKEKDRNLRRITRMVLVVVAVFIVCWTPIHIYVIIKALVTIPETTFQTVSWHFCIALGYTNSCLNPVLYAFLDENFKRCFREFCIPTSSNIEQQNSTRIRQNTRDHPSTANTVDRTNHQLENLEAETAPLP
Sequence of 5-hydroxytryptamine receptor 2A (P35363 whole entry): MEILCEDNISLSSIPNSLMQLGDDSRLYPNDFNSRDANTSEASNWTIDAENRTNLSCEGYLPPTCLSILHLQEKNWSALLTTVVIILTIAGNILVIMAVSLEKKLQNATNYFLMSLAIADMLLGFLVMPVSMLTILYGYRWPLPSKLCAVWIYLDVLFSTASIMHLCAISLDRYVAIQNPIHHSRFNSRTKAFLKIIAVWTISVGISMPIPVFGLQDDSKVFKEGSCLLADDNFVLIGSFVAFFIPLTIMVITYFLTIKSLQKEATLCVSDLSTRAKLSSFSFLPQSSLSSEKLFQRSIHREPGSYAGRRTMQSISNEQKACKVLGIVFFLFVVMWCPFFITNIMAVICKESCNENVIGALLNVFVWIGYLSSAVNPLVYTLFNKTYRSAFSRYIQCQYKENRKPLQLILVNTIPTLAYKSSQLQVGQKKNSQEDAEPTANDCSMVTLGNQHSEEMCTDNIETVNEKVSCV
Sequence of Albumin (P02769 whole entry): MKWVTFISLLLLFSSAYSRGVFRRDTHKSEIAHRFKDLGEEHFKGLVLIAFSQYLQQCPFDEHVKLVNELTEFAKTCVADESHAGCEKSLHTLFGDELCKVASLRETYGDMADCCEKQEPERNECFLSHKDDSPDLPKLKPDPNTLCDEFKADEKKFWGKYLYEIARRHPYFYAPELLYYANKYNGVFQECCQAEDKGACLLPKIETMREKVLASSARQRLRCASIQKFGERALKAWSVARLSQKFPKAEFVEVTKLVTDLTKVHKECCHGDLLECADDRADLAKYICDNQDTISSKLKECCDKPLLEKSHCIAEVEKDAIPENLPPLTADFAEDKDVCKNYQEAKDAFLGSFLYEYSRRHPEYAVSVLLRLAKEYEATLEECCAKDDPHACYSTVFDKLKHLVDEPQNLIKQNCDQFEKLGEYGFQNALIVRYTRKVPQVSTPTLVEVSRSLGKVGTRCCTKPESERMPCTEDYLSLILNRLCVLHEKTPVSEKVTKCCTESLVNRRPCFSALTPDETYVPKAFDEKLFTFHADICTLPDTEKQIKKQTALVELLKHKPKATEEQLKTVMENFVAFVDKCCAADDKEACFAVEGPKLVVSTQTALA
T3 sequence (P49327 whole entry, the tested form may be a part): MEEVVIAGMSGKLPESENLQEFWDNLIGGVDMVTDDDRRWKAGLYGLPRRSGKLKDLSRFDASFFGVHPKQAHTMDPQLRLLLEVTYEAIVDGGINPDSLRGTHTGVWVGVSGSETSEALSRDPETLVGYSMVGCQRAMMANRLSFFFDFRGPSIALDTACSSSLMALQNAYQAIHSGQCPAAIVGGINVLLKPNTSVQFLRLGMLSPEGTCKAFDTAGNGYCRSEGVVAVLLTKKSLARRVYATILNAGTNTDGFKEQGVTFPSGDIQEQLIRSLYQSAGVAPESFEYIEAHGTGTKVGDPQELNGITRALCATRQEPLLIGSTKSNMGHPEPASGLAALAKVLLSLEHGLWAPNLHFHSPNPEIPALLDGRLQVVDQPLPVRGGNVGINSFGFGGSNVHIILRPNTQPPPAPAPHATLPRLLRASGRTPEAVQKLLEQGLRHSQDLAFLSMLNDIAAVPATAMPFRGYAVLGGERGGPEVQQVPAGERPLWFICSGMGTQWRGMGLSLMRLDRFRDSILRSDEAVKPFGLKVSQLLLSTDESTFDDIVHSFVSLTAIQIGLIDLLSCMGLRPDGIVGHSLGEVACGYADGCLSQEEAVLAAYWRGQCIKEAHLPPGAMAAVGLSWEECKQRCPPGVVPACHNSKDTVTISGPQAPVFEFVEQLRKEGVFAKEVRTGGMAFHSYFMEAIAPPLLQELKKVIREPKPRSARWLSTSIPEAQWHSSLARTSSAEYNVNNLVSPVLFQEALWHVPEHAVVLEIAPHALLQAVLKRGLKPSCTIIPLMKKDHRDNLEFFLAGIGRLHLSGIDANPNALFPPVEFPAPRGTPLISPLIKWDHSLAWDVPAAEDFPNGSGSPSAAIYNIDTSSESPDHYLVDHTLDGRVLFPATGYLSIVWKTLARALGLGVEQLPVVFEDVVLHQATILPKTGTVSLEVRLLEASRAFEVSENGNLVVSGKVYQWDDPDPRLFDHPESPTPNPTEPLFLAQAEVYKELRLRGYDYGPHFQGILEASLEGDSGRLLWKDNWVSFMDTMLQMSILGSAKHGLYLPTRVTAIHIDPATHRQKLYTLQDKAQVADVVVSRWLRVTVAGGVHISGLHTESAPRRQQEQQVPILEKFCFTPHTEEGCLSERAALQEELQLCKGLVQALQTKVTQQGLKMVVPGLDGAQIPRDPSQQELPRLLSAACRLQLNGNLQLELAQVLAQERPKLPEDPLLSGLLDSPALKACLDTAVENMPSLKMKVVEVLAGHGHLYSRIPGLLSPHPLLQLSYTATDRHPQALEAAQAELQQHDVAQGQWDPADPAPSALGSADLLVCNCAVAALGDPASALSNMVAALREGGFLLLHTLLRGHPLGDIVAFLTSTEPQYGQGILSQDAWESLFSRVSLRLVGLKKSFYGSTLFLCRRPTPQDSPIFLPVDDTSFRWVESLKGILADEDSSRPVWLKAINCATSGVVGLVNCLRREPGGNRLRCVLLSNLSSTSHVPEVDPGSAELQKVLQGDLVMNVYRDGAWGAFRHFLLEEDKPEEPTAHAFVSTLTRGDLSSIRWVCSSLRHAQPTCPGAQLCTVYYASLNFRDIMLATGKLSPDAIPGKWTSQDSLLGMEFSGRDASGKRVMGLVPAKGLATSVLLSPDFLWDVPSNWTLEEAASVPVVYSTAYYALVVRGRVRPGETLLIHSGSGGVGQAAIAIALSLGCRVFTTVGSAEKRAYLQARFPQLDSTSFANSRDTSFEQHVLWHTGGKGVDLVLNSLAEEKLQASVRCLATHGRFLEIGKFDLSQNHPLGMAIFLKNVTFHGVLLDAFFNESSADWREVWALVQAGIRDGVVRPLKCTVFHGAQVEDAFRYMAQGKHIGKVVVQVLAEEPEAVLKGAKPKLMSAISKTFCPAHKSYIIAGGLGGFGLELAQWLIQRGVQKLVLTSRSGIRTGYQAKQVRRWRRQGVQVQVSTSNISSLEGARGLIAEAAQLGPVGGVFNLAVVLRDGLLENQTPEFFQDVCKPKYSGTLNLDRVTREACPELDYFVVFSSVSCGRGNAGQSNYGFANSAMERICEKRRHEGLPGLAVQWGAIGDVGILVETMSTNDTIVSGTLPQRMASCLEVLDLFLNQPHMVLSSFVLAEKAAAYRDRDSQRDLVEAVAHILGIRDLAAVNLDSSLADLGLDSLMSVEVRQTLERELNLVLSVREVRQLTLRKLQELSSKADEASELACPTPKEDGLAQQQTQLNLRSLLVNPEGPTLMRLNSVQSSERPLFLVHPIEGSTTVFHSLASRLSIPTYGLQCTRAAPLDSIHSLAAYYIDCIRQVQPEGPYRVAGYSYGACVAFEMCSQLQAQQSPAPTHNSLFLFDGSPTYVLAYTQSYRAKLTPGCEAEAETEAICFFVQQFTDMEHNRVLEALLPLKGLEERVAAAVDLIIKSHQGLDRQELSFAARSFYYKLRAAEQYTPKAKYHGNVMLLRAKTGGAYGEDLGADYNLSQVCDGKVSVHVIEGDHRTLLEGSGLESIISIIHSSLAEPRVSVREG

O=C(c1ccco1)N1CCN(CCCCOc2ccc(F)cc2)CC1
EC50 (Mu-type opioid receptor): 92.5 µM (inactive)
EC50 [1]: 4.68 µM (active)

COc1ccc(C(=O)NNC(=S)NC(=O)c2ccc(Br)o2)cc1OC
CC50 (Vero): > 25 µM (active)
EC50 [2]: 0.79 µM (active)
EC50 (Streptococcus): 9.11 µM (active)
IC50 (Albumin): > 94.1 µM (inactive)

CCOC(=O)C1CCN(Cc2cccc(Oc3ccc(Cl)cc3)c2)CC1
EC50 (Mu-type opioid receptor): 92.5 µM (inactive)
EC50 [1]: 2.82 µM (active)

Cc1cc(C)n(-c2ccc(C(=O)Oc3ccc4c(c3)OCO4)cc2)n1
EC50 [3]: > 53 µM (inactive)
IC50 (cells): 6.28 µM (active)
IC50 (Protein skinhead-1): > 100 µM (inactive)
IC50 [4]: > 20 µM (inactive)
IC50 [5]: 9.66 µM (active)

O=C(C1CCC1)N1CCc2cc(S(=O)(=O)NCCN3CCN(c4ccccc4F)CC3)ccc21
EC50 (Mu-type opioid receptor): 92.5 µM (inactive)
EC50 [1]: 13.4 µM (inactive)

COc1ccc(CC(N)c2csc(NC(=O)Nc3ccccc3Oc3ccccc3)n2)cc1 (stereo unspecified)
AC50 [6]: 2.85 µM (active)
AC50 [7]: 1.17 µM (active)
AC50 [8]: 2.16 µM (active)
AC50 [9]: 1.72 µM (active)
AC50 [10]: 21.3 µM (active)

Cc1ccc(-n2[nH]c(C)c(/C=N/Nc3ccc([N+](=O)[O-])cc3[N+](=O)[O-])c2=O)cc1
IC50 (Fatty acid synthase [11]): 12.6 µM (active)
IC50 [12]: 6.07 µM (active)
EC50 [3]: > 53 µM (inactive)
IC50 (Fatty acid synthase [13]): 13.6 µM (active)
IC50 [14]: 100 µM (inactive)
IC50 [15]: 62.4 µM (inactive)
IC50 [5]: 6.1 µM (active)

Cc1cc(C(=O)N/N=C/c2cc(Cl)cc([N+](=O)[O-])c2O)[nH]n1
EC50 [16]: > 300 µM (not active)
IC50 (Aminopeptidase N): 52.3 µM (active)
IC50 (Albumin): > 94.1 µM (inactive)
EC50 [17]: > 300 µM (inconclusive)
